# Experimental data as given in patent US10197556B2, “Methods to detect non-genotoxic carcinogens using flatworms” (Universiteit Gent, priority 2015, dated 2019).
# Structures can show the parent of a compound that is named as a salt. Where two headings read alike, the source gives them in different places.
# How the values were obtained:
# [1] = test system: Schmidtea mediterranea
# Protocol: (§1) Asexual strains of the freshwater planarian Schmidtea mediterranea (38, 45) were maintained in culture medium, consisting of water, that was first deionized and then distilled, and to which the following nutrients were added: 1.6 mM NaCl, 1.0 mM CaCl2, 1.0 mM MgSO4, 0.1 mM MgCl2, 0.1 mM KCl and 1.2 mM NaHCO3. The animals were continuously kept in the dark at a room temperature of 20° C. and were fed once a week with veal liver.
# Experiments were performed with regenerating animals (heads and tails) to accelerate initial responses to carcinogenic compounds, as this process of massive cell proliferation, migration and differentiation resembles the process of carcinogenesis, and, possibly differently affects the dynamics of stem cells toward genotoxic and non-genotoxic carcinogen exposures (16, 32, 39).
# In each experimental condition, animals were cut transversally immediately before exposure to a genotoxic, non-genotoxic or non-carcinogen concentration, medium (control) or medium with DMSO (vehicle control). Exposures were performed in six-well plates (4 ml/well). To exclude intrinsic effects of DMSO on cell proliferation, the DMSO vehicle concentration never exceeded 0.05% and interaction effects between the test compound and DMSO were investigated using a two-way ANOVA (32). […] Animals were fed once a week with veal liver and starved for one week before stem cell proliferation measurements. Stem cell proliferation was measured after one day of regeneration (the mitotic minimum of regeneration), after three days (the mitotic maximum of regeneration), after one week (the end stage of regeneration) after two and six weeks (during homeostasis), as well as at the appearance of organismal phenotypes (15, 46, 47). Phenotypic effects were monitored daily with a stereo microscope.
# An in vivo study allows the investigation of the entire organism's response to carcinogenic compounds and, as such, makes it possible to link carcinogen-induced stem cell proliferation with the organism's phenotype. Conditions were subdivided according to their phenotypic effects into concentrations that caused no observable phenotypic effects (category 1), phenotypic effects (category 2, described in phenotypic effect screening) and concentrations that induced organismal death (category 3). Phenotypic parameters that were monitored daily were tissue regression, lesion, blisters, bloating, pigmentation, behavior, regenerative success, body size, tissue outgrowth, flattened posture and organismal death (35). Stem cell proliferation was quantified at the appearance of systemic effects (category 2 concentrations).
# [2] = test system: Macrostomum lignano; conditions: for Overall prediction: final prediction call over three experiments; for prediction by the assay in the experiments: outcome over the experiments
# Protocol: Cultures of Macrostomum lignano (37) were grown in artificial seawater (ASW) enriched with f/2-medium (40) and fed ad libitum with the diatom Nitzschia curvilineata (PAE culture collection; UGent on the World Wide Web at pae.ugent.be/collection.htm), as described in references 41 and 43.
# One week before starting chemical exposure, a six-well plate filled with 4 ml f/2 medium (Novolab NV) was inoculated with diatoms to achieve an ad libitum food source during exposure. Starvation of the worms leads to a decrease in stem cell proliferation (as shown in Nimeth et al (29)), which would interfere with stem cell proliferation, the endpoint of the assay. Before the start of exposure, fifteen adult worms per condition were pipetted in each well, which was then emptied by pipetting without drying out the worms and refilled with f/2 medium (control), if required, F2+0.05% DMSO (vehicle control) and a concentration of the chemical.
# The DMSO concentration in the vehicle control never exceeded 0.05%. This represented the maximum DMSO percentage in the chemical's highest test concentration.
# To select the appropriate compound concentration, first, a broad concentration range-finding experiment (spacing factor 10; two weeks exposure) was carried out. Based on this pilot range finding, a fine-tuned range finding (spacing factor less than or equal to 2; for D-Mannitol factor 5) was chosen to conduct the assay. The maximum concentration tested depended on the test compound solubility and the requirement of a survival of twelve out of fifteen worms at the end of exposure.
# For all chemicals investigated in this disclosure, the medium was refreshed weekly.
# After a preliminary test (CP as reference) on different exposure times ranging from two days to six weeks, the worms were exposed for a period of two weeks, after which they were subjected to phosphorylated histone H3 immunostaining (PH3) to quantify mitosis.
# To quantify mitotic cells in whole mount specimens, the mitotic marker anti-PH3 was used. The staining was performed by first relaxing the animals in a 1:1 mixture of MgCl2.6H2O (7.14%) and ASW (5 minutes), then in MgCl2.6H2O (7.14%) (undiluted, 5 minutes), followed by fixation in paraformaldehyde (PFA, 4% in PBS, 60 minutes). Animals were then rinsed with phosphate-buffered saline (PBS, 3×5 minutes) and blocked in bovine serum albumin, containing TRITON® (BSA-T, 0.1% TRITON® X-100, 60 minutes). Subsequently, animals were incubated in primary rabbit-anti-phos-H3 (1:300 in BSA-T, overnight, 4° C., Upstate Biotechnology), rinsed in PBS (3×5 minutes) and incubated in secondary TRITC-conjugated swine-anti-rabbit (1:150 in BSA-T, 1 hour, DAKO). Finally, animals were washed with PBS (3×5 minutes) and slides were mounted using Vectashield (Vector Laboratories). Slides were analyzed using a Leica 2500P microscope equipped with epifluorescence, a 40× objective and a DFC360FX CCD camera.
# All somatic PH3-positive cells were counted manually using the Image J cell counter plugin (44) (FIG. 1). Gonadal PH3+ cells were not included in the analysis because of 1) the high density of divisions in that region that can lead to overlapping signals and 2) the germ line representing a separate population of cells, differentially tolerant to exposure, which can result in quantification variability.
# The cut-off value of the assay was determined based on density plots (R version 2.15.3; (33)) of the number of mitotic stem cells of all experiments for controls (sea water and DMSO), non-carcinogens, genotoxic carcinogens and non-genotoxic carcinogens. The cut-off value of 30 lays in the tail of the distribution corresponding to the 97.5 percentile or two standard deviations.
# Concentrations resulting in the death of 20% of the worms (three out of fifteen) during exposure were considered cytotoxic and were not analyzed.
# [3] = test system: Schmidtea mediterranea; conditions: in vivo
# Protocol: as §1, with “liver. […]” for “liver.”
# In each experimental condition, animals were cut transversally immediately before exposure to a genotoxic, non-genotoxic or non-carcinogen concentration, medium (control) or medium with DMSO (vehicle control). […] Stem cell proliferation was measured after one day of regeneration (the mitotic minimum of regeneration), after three days (the mitotic maximum of regeneration), after one week (the end stage of regeneration) after two and six weeks (during homeostasis), as well as at the appearance of organismal phenotypes (15, 46, 47). Phenotypic effects were monitored daily with a stereo microscope.
# [4] = Solubility of test compound in the exposure medium; assay type: physicochemical; conditions: concentrations higher than 5 mM
# [5] = category 2 concentrations, three days (MMS), one week (4NQO), two weeks (S-PB, CPZ, MPH)
# [6] = asexual strain, Schmidtea mediterranea, in vivo
# [7] = asexual strain, Schmidtea mediterranea, in vivo, 2 weeks
# [8] = 100 μM, Experiment 2, two weeks exposure
# [9] = 100 μM, Experiment 3, two weeks exposure
# [10] = Experiment 2, all concentrations, two weeks exposure
# [11] = Experiment 3, all concentrations, two weeks exposure
# [12] = 1000 μM, Experiment 1, two weeks exposure
# [13] = 1000 μM, Experiment 2, two weeks exposure
# [14] = 1000 μM, Experiment 3, two weeks exposure
# [15] = all three experiments, two weeks exposure
# [16] = 0.3125 μM, Experiment 1, two weeks exposure
# [17] = 0.3125 μM, Experiment 3, two weeks exposure
# [18] = 0.625 μM, Experiment 1, two weeks exposure
# [19] = 0.625 μM, Experiment 2, two weeks exposure
# [20] = 0.625 μM, Experiment 3, two weeks exposure
smiles,measurement,setting,value
O=[N+]([O-])c1cc[n+]([O-])c2ccccc12 [4-Nitroquinoline-1-oxide],Cat. 1 concentrations: No effects on phenotype,"[1]; 4NQO, exposure one week",0.1 to 0.5 µM
same,Cat. 2 concentrations: Phenotypic effects,"[1]; 4NQO, exposure one week",2 µM
same,Cat. 3 concentrations: Mortality,"[1]; 4NQO, exposure one week",5 µM
same,Number of animals with Behavior effects,[1]; [5],3/4
same,Number of animals with Pigmentation,[1]; [5],2/4
same,Number of animals with Regenerative success effects,[1]; [5],4/4
same,Number of animals with Tissue regression,[1]; [5],2/4
same,proportion of worms having 30 or more mitotic stem cells,"[2]; 0.125 μM, Experiment 2, two weeks exposure",16.7%
same,proportion of worms having 30 or more mitotic stem cells,"[2]; 0.5 μM, Experiment 1, two weeks exposure",77.8%
same,proportion of worms having 30 or more mitotic stem cells,"[2]; 0.5 μM, Experiment 2, two weeks exposure",0%
same,proportion of worms having 30 or more mitotic stem cells,"[2]; 0.5 μM, Experiment 3, two weeks exposure",36.4%
"CN(C)CCCN1c2ccccc2Sc2ccc(Cl)cc21 [CPZ, chlorpromazine hydrochloride]",Number of animals with Behavior effects,[1]; [6],4/4
same,Number of animals with Body size effects,[1]; [6],2/2
same,concentrations that trigger phenotypic effects,[1]; [6],1 µM
same,Cat. 1 concentrations: No effects on phenotype,[1]; [7],0.25 to 0.5 µM
same,Cat. 2 concentrations: Phenotypic effects,[1]; [7],0.75 to 1 µM
same,Cat. 3 concentrations: Mortality,[1]; [7],2 µM
O=P1(N(CCCl)CCCl)NCCCO1 (stereo not shown) [Cyclophosphamide monohydrate],proportion of worms having 30 or more mitotic stem cells,"[2]; 50 μM, Experiment 1, two weeks exposure",0%
same,proportion of worms having 30 or more mitotic stem cells,"[2]; 50 μM, Experiment 2, two weeks exposure",0%
same,proportion of worms having 30 or more mitotic stem cells,"[2]; 50 μM, Experiment 3, two weeks exposure",16.7%
same,proportion of worms having 30 or more mitotic stem cells,"[2]; 100 μM, Experiment 1 (only three worms quantified, experiment excluded), two weeks exposure",66.7%
same,Pred,[2]; [8],+ (+ in case 20% or more worms having 30 or more mitotic stem cells)
same,proportion of worms having 30 or more mitotic stem cells,[2]; [8],20%
same,Pred,[2]; [9],+ (+ in case 20% or more worms having 30 or more mitotic stem cells)
same,proportion of worms having 30 or more mitotic stem cells,[2]; [9],33.3%
same,Prediction of the experiment,[2]; [10],Pos
same,Prediction of the experiment,[2]; [11],Pos
same,Overall prediction,[2],Pos
same,concentrations predicted positive,[2]; two weeks exposure,100 µM
same,prediction by the assay in the experiments,[2]; two weeks exposure,predicted positive in all experiments
OC[C@@H](O)[C@@H](O)[C@H](O)[C@H](O)CO [D-mannitol],effects on proliferative responses,[3],no significant effects
same,phenotypic effects induced by exposure,[1]; in vivo,no phenotypic effects
same,solubility in the medium,[4],insolubility in the medium
same,proportion of worms having 30 or more mitotic stem cells,[2]; [12],0%
same,proportion of worms having 30 or more mitotic stem cells,[2]; [13],0%
same,proportion of worms having 30 or more mitotic stem cells,[2]; [14],0%
same,proportion of worms having 30 or more mitotic stem cells,"[2]; 5000 μM, Experiment 1, two weeks exposure",0%
same,proportion of worms having 30 or more mitotic stem cells,"[2]; 5000 μM, Experiment 2, two weeks exposure",0%
same,proportion of worms having 30 or more mitotic stem cells,"[2]; 5000 μM, Experiment 3, two weeks exposure",0%
same,concentration up to which predicted negative,[2]; [15],up to 5 mM
same,worms having a number of mitotic stem cells exceeding the cut-off value,"[2]; all three experiments, up to 5 mM, two weeks exposure",0%
same,prediction by the assay in the experiments,[2]; two weeks exposure,predicted negative by the assay for all three experiments
"CC/C(=C(/CC)c1ccc(O)cc1)c1ccc(O)cc1 [Diethylbestrol, Diethylstilbestrol]",Pred,[2]; [16],+ (+ in case 20% or more worms having 30 or more mitotic stem cells)
same,proportion of worms having 30 or more mitotic stem cells,[2]; [16],100%
same,proportion of worms having 30 or more mitotic stem cells,"[2]; 0.3125 μM, Experiment 2, two weeks exposure",12.5%
same,Pred,[2]; [17],+ (+ in case 20% or more worms having 30 or more mitotic stem cells)
same,proportion of worms having 30 or more mitotic stem cells,[2]; [17],33.3%
same,Pred,[2]; [18],+ (+ in case 20% or more worms having 30 or more mitotic stem cells)
same,proportion of worms having 30 or more mitotic stem cells,[2]; [18],27.3%
same,Pred,[2]; [19],+ (+ in case 20% or more worms having 30 or more mitotic stem cells)
same,proportion of worms having 30 or more mitotic stem cells,[2]; [19],50%
same,Pred,[2]; [20],+ (+ in case 20% or more worms having 30 or more mitotic stem cells)
same,proportion of worms having 30 or more mitotic stem cells,[2]; [20],22.2%
same,Prediction of the experiment,"[2]; Experiment 1, all concentrations, two weeks exposure",Pos
same,Prediction of the experiment,[2]; [10],Pos
same,Prediction of the experiment,[2]; [11],Pos
same,Overall prediction,[2],Pos
same,prediction by the assay in the experiments,[2]; two weeks exposure,predicted positive for all three experiments
"COS(C)(=O)=O [MMS, methyl methane sulphonate]",Cat. 2 concentrations: Phenotypic effects,"[1]; MMS, exposure three days",400 to 500 µM
same,Cat. 3 concentrations: Mortality,"[1]; MMS, exposure three days",1000 µM
same,Number of animals with Behavior effects,[1]; [5],14/14
same,Number of animals with Body size effects,[1]; [5],10/14
same,Number of animals with Pigmentation,[1]; [5],1/14
same,Number of animals with Regenerative success effects,[1]; [5],14/14
same,Number of animals with Tissue regression,[1]; [5],3/14
"CN(C)CCN(Cc1cccs1)c1ccccn1 [MPH, methapyrilene hydrochloride]",Number of animals with Behavior effects,[1]; [6],8/8
same,Number of animals with Body size effects,[1]; [6],8/8
"CCC1(c2ccccc2)C(=O)NC(=O)NC1=O [S-PB, sodium phenobarbital]",Cat. 1 concentrations: No effects on phenotype,"[1]; S-PB, exposure two weeks",1000 µM
same,Cat. 2 concentrations: Phenotypic effects,"[1]; S-PB, exposure two weeks",2000 µM
same,Cat. 3 concentrations: Mortality,"[1]; S-PB, exposure two weeks",4000 µM
same,Number of animals with Behavior effects,[1]; [5],2/2
Cc1noc(NS(=O)(=O)c2ccc(N)cc2)c1C [Sulfisoxazole],proportion of worms having 30 or more mitotic stem cells,"[2]; […] μM, Experiment 1, two weeks exposure",0%
same,proportion of worms having 30 or more mitotic stem cells,"[2]; […] μM, Experiment 3, two weeks exposure",0%
same,proportion of worms having 30 or more mitotic stem cells,"[2]; 500 μM, Experiment 1, two weeks exposure",0%
same,proportion of worms having 30 or more mitotic stem cells,"[2]; 500 μM, Experiment 2, two weeks exposure",11.1%
same,proportion of worms having 30 or more mitotic stem cells,"[2]; 500 μM, Experiment 3, two weeks exposure",0%
same,proportion of worms having 30 or more mitotic stem cells,[2]; [12],0%
same,proportion of worms having 30 or more mitotic stem cells,[2]; [13],0%
same,proportion of worms having 30 or more mitotic stem cells,[2]; [14],0%
same,concentration up to which predicted negative,[2]; [15],up to 1 mM
same,lethality of the worms,"[2]; concentrations higher than the highest analyzed (Sox >1 mM, CP >100 μM, 4NQO >0.5 μM)",greater than 20%
same,prediction by the assay in the experiments,[2]; two weeks exposure,predicted negative for all three experiments
